# Results from patent US20230257372A1 (CHONG KUN DANG PHARMACEUTICAL CORP., priority 2020, published 2023).
# Experiments:
# human recombinant HDAC1 = target: T1, human recombinant HDAC1 (Homo sapiens, UniProt Q13547); assay: HDAC1 enzyme activity inhibition (HDAC Fluorimetric Drug Discovery Kit); type: biochemical; settings: human recombinant HDAC1; IC50 calculated with GraphPad Prism; read-out: HDAC1
# T1 construct: purchased Enzo Life Science, Inc. BML-SE456
# Method in brief: (§1)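 Fluorimetric deacetylase read-out: after 30 min with Developer II following a 60 min, 30° C reaction of recombinant enzyme ([…]) with 10 μM substrate, across five-fold serial compound dilutions.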
# human recombinant HDAC6 = target: T2, human recombinant HDAC6 (Homo sapiens, UniProt Q9UBN7); assay: HDAC6 enzyme activity inhibition (HDAC Fluorimetric Drug Discovery Kit); type: biochemical; settings: for HDAC6 selectivity (fold): HDAC1 IC50 / HDAC6 IC50; for IC50: human recombinant HDAC6, IC50 calculated with GraphPad Prism
# T2 construct: purchased Calbiochem Inc. 382180
# T2 sequence (Q9UBN7 1-1215): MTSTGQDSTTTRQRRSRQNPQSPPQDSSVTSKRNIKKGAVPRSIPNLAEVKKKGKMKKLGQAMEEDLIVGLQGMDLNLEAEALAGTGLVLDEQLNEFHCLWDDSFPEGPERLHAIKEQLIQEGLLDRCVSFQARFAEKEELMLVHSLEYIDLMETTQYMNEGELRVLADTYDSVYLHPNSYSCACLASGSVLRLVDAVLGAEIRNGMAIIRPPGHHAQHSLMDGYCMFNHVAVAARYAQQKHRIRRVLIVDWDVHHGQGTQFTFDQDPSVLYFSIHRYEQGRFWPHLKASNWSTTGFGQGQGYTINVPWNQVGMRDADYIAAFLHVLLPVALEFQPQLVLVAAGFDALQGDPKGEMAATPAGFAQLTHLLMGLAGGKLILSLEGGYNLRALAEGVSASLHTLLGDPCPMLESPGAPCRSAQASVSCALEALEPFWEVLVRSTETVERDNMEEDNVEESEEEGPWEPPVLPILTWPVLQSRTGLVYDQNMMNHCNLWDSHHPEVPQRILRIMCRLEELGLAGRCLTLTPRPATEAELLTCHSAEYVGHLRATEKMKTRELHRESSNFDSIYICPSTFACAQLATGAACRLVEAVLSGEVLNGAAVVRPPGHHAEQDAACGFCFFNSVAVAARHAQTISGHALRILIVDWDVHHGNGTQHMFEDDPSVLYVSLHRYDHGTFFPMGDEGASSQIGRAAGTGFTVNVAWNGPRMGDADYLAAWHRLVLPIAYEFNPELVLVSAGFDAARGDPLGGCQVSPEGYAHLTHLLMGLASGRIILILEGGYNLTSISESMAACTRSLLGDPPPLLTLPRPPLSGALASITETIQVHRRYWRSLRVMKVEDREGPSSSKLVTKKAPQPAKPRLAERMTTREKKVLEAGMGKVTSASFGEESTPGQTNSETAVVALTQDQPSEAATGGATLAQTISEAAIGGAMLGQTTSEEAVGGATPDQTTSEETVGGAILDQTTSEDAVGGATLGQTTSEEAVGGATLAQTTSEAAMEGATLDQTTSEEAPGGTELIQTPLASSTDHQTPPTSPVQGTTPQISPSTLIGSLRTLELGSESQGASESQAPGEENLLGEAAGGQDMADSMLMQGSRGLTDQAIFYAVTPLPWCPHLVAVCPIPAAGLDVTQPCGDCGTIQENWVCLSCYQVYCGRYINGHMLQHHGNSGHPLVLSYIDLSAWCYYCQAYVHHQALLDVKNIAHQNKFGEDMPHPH
# Method in brief: as §1
# T1 sequence (Q13547 whole entry): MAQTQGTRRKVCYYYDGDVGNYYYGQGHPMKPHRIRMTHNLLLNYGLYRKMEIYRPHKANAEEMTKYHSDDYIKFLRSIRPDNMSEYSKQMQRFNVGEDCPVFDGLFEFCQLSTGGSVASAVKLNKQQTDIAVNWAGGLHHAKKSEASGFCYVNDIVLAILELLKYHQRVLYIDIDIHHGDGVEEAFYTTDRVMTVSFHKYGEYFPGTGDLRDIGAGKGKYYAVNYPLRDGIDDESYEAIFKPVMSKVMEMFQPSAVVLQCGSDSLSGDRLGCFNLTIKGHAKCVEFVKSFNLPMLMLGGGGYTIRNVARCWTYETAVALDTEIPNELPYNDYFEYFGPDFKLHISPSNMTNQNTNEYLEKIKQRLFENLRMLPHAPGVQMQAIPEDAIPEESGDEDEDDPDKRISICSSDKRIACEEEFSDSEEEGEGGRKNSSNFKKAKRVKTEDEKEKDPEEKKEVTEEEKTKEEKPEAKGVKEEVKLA
IC50 (human recombinant HDAC1),HDAC6 selectivity (fold) (human recombinant HDAC6),IC50 (human recombinant HDAC6),SMILES
> 50000 nM,2604 fold,19.2 nM,"Fc1ccc(N2CCNCC2)cc1-c1cn(Cc2ccc(-c3nnc(C(F)F)o3)cc2)nn1 [Compound 4450, 2-(difluoromethyl)-5-(4-((4-(2-fluoro-5-(piperazin-1-yl)phenyl)-1H-1,2,3-triazol-1-yl)methyl)phenyl)-1,3,4-oxadiazole]"
> 50000 nM,1976 fold,16.8 nM,"CN1CCN(c2ccc(F)c(-c3cn(Cc4ccc(-c5nnc(C(F)F)o5)cc4)nn3)c2)CC1 [Compound 4451, 2-(difluoromethyl)-5-(4-((4-(2-fluoro-5-(4-methylpiperazin-1-yl)phenyl)-1H-1,2,3-triazol-1-yl)methyl)phenyl)-1,3,4-oxadiazole]"
> 50000 nM,2463 fold,20.3 nM,"CCN1CCN(c2ccc(F)c(-c3cn(Cc4ccc(-c5nnc(C(F)F)o5)cc4)nn3)c2)CC1 [Compound 4452, 2-(difluoromethyl)-5-(4-((4-(5-(4-ethylpiperazin-1-yl)-2-fluorophenyl)-1H-1,2,3-triazol-1-yl)methyl)phenyl)-1,3,4-oxadiazole]"
> 50000 nM,3144 fold,15.9 nM,"CC(C)N1CCN(c2ccc(F)c(-c3cn(Cc4ccc(-c5nnc(C(F)F)o5)cc4)nn3)c2)CC1 [Compound 4453, 2-(difluoromethyl)-5-(4-((4-(2-fluoro-5-(4-isopropylpiperazin-1-yl)phenyl)-1H-1,2,3-triazol-1-yl)methyl)phenyl)-1,3,4-oxadiazole]"
> 50000 nM,632 fold,79.1 nM,"Fc1ccc(N2CCN(C3CCC3)CC2)cc1-c1cn(Cc2ccc(-c3nnc(C(F)F)o3)cc2)nn1 [Compound 4454, 2-(4-((4-(5-(4-cyclobutylpiperazin-1-yl)-2-fluorophenyl)-1H-1,2,3-triazol-1-yl)methyl)phenyl)-5-(difluoromethyl)-1,3,4-oxadiazol]"
> 50000 nM,520 fold,96.1 nM,"Fc1ccc(N2CCN(C3COC3)CC2)cc1-c1cn(Cc2ccc(-c3nnc(C(F)F)o3)cc2)nn1 [Compound 4455, 2-(difluoromethyl)-5-(4-((4-(2-fluoro-5-(4-(oxetan-3-yl)piperazin-1-yl)phenyl)-1H-1,2,3-triazol-1-yl)methyl)phenyl)-1,3,4-oxadiazole]"
> 50000 nM,148 fold,337 nM,"CN1CC(c2cccc(-c3cn(Cc4ccc(-c5nnc(C(F)F)o5)cc4F)nn3)c2)C1 [Compound 4460, 2-(difluoromethyl)-5-(3-fluoro-4-((4-(3-(1-methylazetidin-3-yl)phenyl)-1H-1,2,3-triazol-1-yl)methyl)phenyl)-1,3,4-oxadiazole]"
> 50000 nM,759 fold,65.8 nM,"CC(C)N1CC(c2cccc(-c3cn(Cc4ccc(-c5nnc(C(F)F)o5)cc4F)nn3)c2)C1 [Compound 4461, 2-(difluoromethyl)-5-(3-fluoro-4-((4-(3-(1-isopropylazetidin-3-yl)phenyl)-1H-1,2,3-triazol-1-yl)methyl)phenyl)-1,3,4-oxadiazole]"
> 50000 nM,540 fold,92.5 nM,"Fc1cc(-c2nnc(C(F)F)o2)ccc1Cn1cc(-c2cccc(C3CN(C4COC4)C3)c2)nn1 [Compound 4462, 2-(difluoromethyl)-5-(3-fluoro-4-((4-(3-(1-(oxetan-3-yl)azetidin-3-yl)phenyl)-1H-1,2,3-triazol-1-yl)methyl)phenyl)-1,3,4-oxadiazole]"
> 50000 nM,1046 fold,47.8 nM,"O=C(Nc1cccc(-c2cn(Cc3ccc(-c4nnc(C(F)F)o4)cn3)nn2)c1)C1CNC1 [Compound 4463, N-(3-(1-((5-(5-(difluoromethyl)-1,3,4-oxadiazol-2-yl)pyridin-2-yl)methyl)-1H-1,2,3-triazol-4-yl)phenyl)azetidin-3-carboxamide]"
> 50000 nM,1650 fold,30.3 nM,"CCN1CC(C(=O)Nc2cccc(-c3cn(Cc4ccc(-c5nnc(C(F)F)o5)cn4)nn3)c2)C1 [Compound 4464, N-(3-(1-((5-(5-(difluoromethyl)-1,3,4-oxadiazol-2-yl)pyridin-2-yl)methyl)-1H-1,2,3-triazol-4-yl)phenyl)-1-ethylazetidin-3-carboxamide]"
> 50000 nM,2222 fold,22.5 nM,O=C(Nc1cccc(-c2cn(Cc3ccc(-c4nnc(C(F)F)o4)cn3)nn2)c1)C1CN(C2COC2)C1 [Compound 4465]
> 50000 nM,6944 fold,7.2 nM,"Fc1cc(-c2nnc(C(F)F)o2)ccc1Cn1cc(-c2ccc(CN3CCC3)cc2)nn1 [Compound 4466, 2-(4-((4-(4-(azetidin-1-ylmethyl)phenyl)-1H-1,2,3-triazol-1-yl)methyl)-3-fluorophenyl)-5-(difluoromethyl)-1,3,4-oxadiazole]"
> 50000 nM,2283 fold,21.9 nM,"Fc1cc(-c2nnc(C(F)F)o2)ccc1Cn1cc(-c2ccc(CN3CC(F)C3)cc2)nn1 [Compound 4467, 2-(difluoromethyl)-5-(3-fluoro-4-((4-(4-((3-fluoroazetidin-1-yl)methyl)phenyl)-1H-1,2,3-triazol-1-yl)methyl)phenyl)-1,3,4-oxadiazole]"
> 50000 nM,370 fold,13.5 nM,"Fc1cc(-c2nnc(C(F)F)o2)ccc1Cn1cc(-c2ccc(CNC3CCC3)cc2)nn1 [Compound 4468, N-(4-(1-(4-(5-(difluoromethyl)-1,3,4-oxadiazol-2-yl)-2-fluorobenzyl)-1H-1,2,3-triazol-4-yl)benzyl)cyclobutanamine]"
> 50000 nM,847 fold,59 nM,"Fc1cc(-c2nnc(C(F)F)o2)ccc1Cn1cc(-c2ccc(CNC3COC3)cc2)nn1 [Compound 4469, N-(4-(1-(4-(5-(difluoromethyl)-1,3,4-oxadiazol-2-yl)-2-fluorobenzyl)-1H-1,2,3-triazol-4-yl)benzyl)oxetan-3-amine]"
> 50000 nM,915 fold,54.6 nM,"CN1CC(NCc2ccc(-c3cn(Cc4ccc(-c5nnc(C(F)F)o5)cc4F)nn3)cc2)C1 [Compound 4470, N-(4-(1-(4-(5-(difluoromethyl)-1,3,4-oxadiazol-2-yl)-2-fluorobenzyl)-1H-1,2,3-triazol-4-yl)benzyl)-1-methylazetidin-3-amine]"
> 50000 nM,1116 fold,44.8 nM,"Fc1cc(-c2nnc(C(F)F)o2)ccc1Cn1cc(-c2ccc(CN3CCOCC3)cc2)nn1 [Compound 4471, 4-(4-(1-(4-(5-(difluoromethyl)-1,3,4-oxadiazol-2-yl)-2-fluorobenzyl)-1H-1,2,3-triazol-4-yl)benzyl)morpholine]"
> 50000 nM,407 fold,123 nM,"Fc1cc(-c2nnc(C(F)F)o2)ccc1Cn1cc(-c2ccc(CN3CCC(F)(F)CC3)cc2)nn1 [Compound 4472, 2-(difluoromethyl)-5-(4-((4-(4-((4,4-difluoropiperidin-1-yl)methyl)phenyl)-1H-1,2,3-triazol-1-yl)methyl)-3-fluorophenyl)-1,3,4-oxadiazole]"
> 50000 nM,1253 fold,39.9 nM,"CN1CCN(Cc2ccc(-c3cn(Cc4ccc(-c5nnc(C(F)F)o5)cc4F)nn3)cc2)CC1 [Compound 4473, 2-(difluoromethyl)-5-(3-fluoro-4-((4-(4-((4-methylpiperazin-1-yl)methyl)phenyl)-1H-1,2,3-triazol-1-yl)methyl)phenyl)-1,3,4-oxadiazole]"
